Read-outs that look alike come from different tables or passages of the source.
Assays:
[1] = system: Lentivirus-NC virus infection of H1299 cells; settings: different virus titers (MOI 5, 10, 20), FIGS. 7 and 9
Protocol: H1299 Human lung cancer cells, cultured with RPMI-1640 10% fetal bovine serum in an incubator with 5% CO2 and saturated humidity at 37° C. • RPMI-1640 + 10% Fetal Bovine Serum • PBS (Life Science Products&Services) • Trypsin-EDTA Solution (Gibco) • 24-well plate (Corning) • Lentivirus-NC virus solution (GenePharma, 1×10^9 TU/mL)
Principles and procedures for virus infection experiment • 1.

[2] = system: plasma coagulation; settings: for APTT: in vitro, rabbit platelet poor plasma, x±s, n = 3
Protocol: (§1) Coagulation is a complex process involving a series of coagulation factors, which essentially include two pathways, “intrinsic coagulation pathway” and “extrinsic coagulation pathway”. Activated partial thromboplastin time (APTT), prothrombin time (PT), and thrombin time (TT) are adopted usually in the laboratory to evaluate the anticoagulant effect.
(§2) New Zealand rabbits were anaesthetized with chloral hydrate, heart puncture was conducted to collect blood into an anticoagulant tube containing ⅒ vol 3.8% sodium citrate, followed by centrifuging at 3000 rpm for 15 min, supernatant was collected to obtain platelet poor plasma which was stored in a refrigerator for later use.
(§3) The compounds were prepared with DMSO to obtain stock solutions with a concentration of 10 mM. Samples to be tested were diluted with normal saline during the test, with a final concentration of 50 µM, 12.5 µM, 3.13 µM, 0.78 µM, 0.20 µM, and 0.05 µM.
APTT Assay: 100 µL of plasma was mixed well with 50 µL of samples to tested respectively, the mixture was pre-heated at 37° C. for 2 min, then 50 µL of APTT reagent was added, followed by incubation at 37° C. for 3 min, addition of 50 µL of 0.025 mol/L CaCl2, and detection on an automatic blood coagulation analyzer to record the coagulation time.
(§4) One-way analysis of variance (One-Way ANOVA) was performed for multi-group comparison; pairwise comparison for means among groups was performed, with Dunnett’s multiple comparisons test in case of homogeneity of variance, and Dunnett’s T3 multiple comparisons test in case of heterogeneity of variance. P <0.05 means statistical significance.

[3] = system: plasma coagulation; settings: in vitro, rabbit platelet poor plasma, x±s, n = 3
Protocol: as §1, §2, §3
PT Assay: 50 µL of plasma was mixed well with 20 µL of samples to be tested respectively, the mixture was pre-heated at 37° C. for 2 min, followed by incubation at 37° C. for 3 min, and addition of 100 µL of PT reagent. The mixture was mixed well and tested to record the coagulation time.
as §4

[4] = system: plasma coagulation; settings: in vitro, rabbit platelet poor plasma, x±s, n = 3; remark: listed apart in the source
Protocol: as §1, §2, §3
TT Assay: 100 µL of prepared plasma was mixed well with 50 µL of the sample mixture to be tested, and pre-heated at 37° C. for 2 min, followed by addition of 50 µL of TT reagent to the mixture and detection to record results of the instrument.
as §4

Q: Which “inhibition of virus infection in cells” value ([1]; 20 µM concentration) does the source give for `O=C(O)CC1OC(O)C(OC(=O)c2cc(O)c(O)c(O)c2)C(OC(=O)c2cc(O)c(O)c(O)c2)C1OC(=O)c1cc(O)c(O)c(O)c1` (stereo not shown) [Compound 6] here?
A: significantly inhibit virus infection in cells

Q: What about the “inhibition of plasma coagulation (coagulation indexes APTT, PT, and TT)” value ([2]; dose gradients 50.00, 12.50, 3.13, 0.78, 0.20, 0.05 (printed µL), covers APTT, PT and TT) of the same molecule?
A: dose-dependently inhibit plasma coagulation

Q: And the APTT ([2]; 0.05 µM)?
A: 20.12 ± 0.09 s

Q: And the APTT ([2]; 0.20 µM)?
A: 24.03 ± 1.05 s

Q: And the APTT ([2]; 0.78 µM)?
A: 26.84 ± 0.79 s

Q: And the APTT ([2]; 3.13 µM)?
A: 37.72 ± 1.83 s

Q: And the APTT ([2]; 12.50 µM)?
A: 75.11 ± 2.58 s

Q: And the APTT ([2]; 50.00 µM)?
A: 106.51 ± 0.94 s

Q: And the PT ([3]; 0.05 µM)?
A: 9.76 ± 0.85 s

Q: What about the PT ([3]; 0.20 µM) of the same molecule?
A: 10.11 ± 0.30 s

Q: What about the PT ([3]; 0.78 µM) of the same molecule?
A: 10.54 ± 0.37 s

Q: And the PT ([3]; 3.13 µM)?
A: 12.83 ± 0.19 s

Q: And the PT ([3]; 12.50 µM)?
A: 13.73 ± 0.17 s

Q: What about the PT ([3]; 50.00 µM) of the same molecule?
A: 16.66 ± 0.45 s

Q: What about the TT ([4]; 0.05 µM) of the same molecule?
A: 23.35 ± 0.31 s

Q: And the TT ([4]; 0.20 µM)?
A: 22.90 ± 0.09 s

Q: What about the TT ([4]; 0.78 µM) of the same molecule?
A: 23.95 ± 0.07 s

Q: And the TT ([4]; 3.13 µM)?
A: 25.25 ± 0.27 s

Q: And the TT ([4]; 12.50 µM)?
A: 28.89 ± 0.68 s

Q: What about the TT ([4]; 50.00 µM) of the same molecule?
A: 38.87 ± 0.77 s

Q: What does the source list for `O=C(Oc1ccc(-c2coc3c(OC(=O)c4cc(O)c(O)c(O)c4)cc(OC(=O)c4cc(O)c(O)c(O)c4)c(OC(=O)c4cc(O)c(O)c(O)c4)c3c2=O)cc1)c1cc(O)c(O)c(O)c1` [Compound 4]?
A: inhibition of virus infection in cells ([1]; 10 µM concentration): significantly inhibited virus infection in cells; inhibition of virus infection in cells ([1]; 20 µM concentration): significantly inhibit virus infection in cells
